Measurements taken from patent US12590950B2, “Methods for predicting ER-mediated DNA damage” (UNIVERSITY OF MASSACHUSETTS, priority 2019, dated 2026).

Assays:
[1] = test system: ER; conditions: compared to BP3; cited from earlier work
[2] = test system: T47D cells; assay: γH2AX immunostaining (DNA damage) in T47D cells; assay type: cell-based, human
Method: Immunostaining: Cells were grown in clearing media for 48 h and plated on 20 mm coverslip in 12 well plates with a density of 2×10^5 cells/well. […] Cells were washed with 1×PBS, blocked in 2% BSA/PBS with 0.1% Triton-X 100 for 1 hr at room temperature (RT), incubated overnight with γH2AX antibody (Cell Signaling #9718 S) or ERα antibody (Santa Cruz Biotechnology #sc-8002) at 4° C. and 1 hour with secondary antibody. S9.6: Cells were fixed in ice-cold 100% methanol for 10 min at −20° C., permeabilized in 100% acetone for 1 min at RT, blocked for 30 min in saline sodium citrate pH 7 (SSC, 4×), 3% BSA, 0.1% Triton-X and incubated with S9.6 (Kerafast #ENH001) 2 hr at RT followed by 1 h with secondary antibody. If indicated, slides were treated with RNase H (NEB #M0297L) for 4 hr at 37° C. prior to incubation with primary antibody. Stained cells were mounted with Vectashield mounting medium containing DAPI (Vector Laboratories #H-1200). Slides were imaged at 60× (immersion oil) with Nikon A1 Spectral Confocal microscope. Analysis of γH2AX and S9.6 intensity per nucleus or foci per nucleus was calculated using Nikon analysis software, where DAPI was used as a mask for the nucleus.

[3] = test system: TFF1; assay: RT-qPCR of estrogen-responsive gene TFF1 in T47D cells; assay type: cell-based, human; conditions: fulvestrant 1 μM with 10 nM E2, T47D
Method: RT-qPCR: RNA from T47D cells, MCF-7 Cells or flash-frozen 4th mammary gland was isolated with TRIzol (Thermofisher Scientific #15596018) and Direct-zol RNA MiniPrep Plus (Zymo Research #R2072). cDNA was prepared with Protoscript II First Strand cDNA Synthesis Kit (New England Biolabs #E6560S) and qPCR for TFF1, progesterone receptor (PGR) and Amphiregulin (AREG) was performed on CFX96 Real-Time System thermocycler (Bio-Rad) using primers in Table 1.

Row | Structure (SMILES) | ER transactivation potential [1] | effect on E2-induced γH2AX intensity ([2]; fulvestrant 1 μM with 10 nM E2, T47D) | effect on γH2AX intensity in response to 5 μM BP3 and 5 μM PP ([2]; fulvestrant 1 μM, T47D) | effect on transcriptional responses (TFF1) to E2 [3]
1 | O=C(c1ccccc1)c1ccc(O)cc1O [2,4-diOH-BP] | higher ER transactivation potential compared to BP3 | – | – | –
2 | C[C@]12CC[C@@H]3c4ccc(O)cc4C[C@@H](CCCCCCCCC[S+]([O-])CCCC(F)(F)C(F)(F)F)[C@H]3[C@@H]1CC[C@@H]2O (stereo partly shown) [fulvestrant] | – | significantly reduced | inhibited | blocked
